For orientation: Ki means a dissociation constant, usually derived from enzyme kinetics or from competition with a known ligand. A high value points to weaker binding.

A short description of this assay: Inhibition of PGPH-like activity of 20S proteasome in human erythrocytes using Z-Leu-Leu-Glu-AMC as substrate by fluorescence assay.

Turning to `CC(C)C[C@H](NC(=O)CCn1ccc2ncccc2c1=O)B(O)O`, affinity was put at a Ki of 690 nM. For `CC(C)C[C@H](NC(=O)CCn1ccc2ccc(Br)cc2c1=O)B(O)O` the value was 2040 nM; for `CC(C)C[C@H](NC(=O)CCn1ccc2ccccc2c1=O)B(O)O`, 240 nM. For `CC(C)C[C@H](NC(=O)Cn1ccc2ccccc2c1=O)B(O)O` the value was 990 nM. Next, `COc1cc2ccn(CCC(=O)N[C@@H](CC(C)C)B(O)O)c(=O)c2cc1OC`: 1250 nM. `CC(C)C[C@H](NC(=O)Cn1ccc2ccc(Br)cc2c1=O)B(O)O` yielded an inhibition constant (Ki) of 310 nM.
